Results on two compounds are retold here after PMC4823786, “Redirection of pyruvate flux toward desired metabolic pathways through substrate channeling between pyruvate kinase and pyruvate-converting enzymes in Saccharomyces cerevisiae” (Scientific Reports, 2016).

Molecules are shown by their SMILES.

The target in the assay is T1, His6-LdhA (Leuconostoc mesenteroides, UniProt Q03VC9).
T1 construct: gene LEUM_1756; N-terminal His6 tag (pET28b), expressed in E. coli Rogetta gami2 (DE3) pLysS, Ni-NTA purified
Kind of assay: NADH oxidation monitored at […] nm. It counts as biochemical. The note with it: 10 mM sodium pyruvate, 0.2 mM β-NADH, 50 mM Tris-HCl pH 7.0.

T1 sequence (Q03VC9 entry or part of it): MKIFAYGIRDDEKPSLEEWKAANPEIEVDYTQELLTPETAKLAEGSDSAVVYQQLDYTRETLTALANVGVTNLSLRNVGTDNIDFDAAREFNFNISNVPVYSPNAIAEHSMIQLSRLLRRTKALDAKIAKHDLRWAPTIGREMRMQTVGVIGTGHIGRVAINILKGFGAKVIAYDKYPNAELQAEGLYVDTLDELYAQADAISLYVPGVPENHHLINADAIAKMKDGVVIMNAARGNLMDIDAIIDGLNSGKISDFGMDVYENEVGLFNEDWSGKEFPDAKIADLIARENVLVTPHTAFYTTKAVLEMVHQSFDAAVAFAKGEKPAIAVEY

For `NC(=O)C1=CN([C@@H]2O[C@H](COP(=O)(O)OP(=O)(O)OC[C@H]3O[C@@H](n4cnc5c(N)ncnc54)[C@H](O)[C@@H]3O)[C@@H](O)[C@H]2O)C=CC1` [NADH], the “NADH oxidation monitored at 340 nm” value is listed as “reduction of pyruvate to lactate was monitored by measuring the oxidation rate of NADH”.
As for `CC(=O)C(=O)O` [pyruvate], the entry is “reduction of pyruvate to lactate was monitored by measuring the oxidation rate of NADH”.
